In brackets after ≈: the same amount, converted by molar mass. Like-named read-outs stand apart in the source and are kept apart here.
Key:
Y. pestis [1] = experiment: microbe, parasite or virus in culture; assay type: cell-based
B. anthracis [2] = experiment: microbe, parasite or virus in culture; assay type: cell-based
B. mallei [3] = experiment: microbe, parasite or virus in culture; assay type: cell-based
Legionella pneumophila = experiment: microbe, parasite or virus in culture; assay type: cell-based
Y. pestis (C092) = system: Y. pestis (C092); parameters: species or system BALB/c mice; conditions: mouse, in vivo; for PD50: ip
B. anthracis AMES strain = system: B. anthracis AMES strain; parameters: species or system BALB/c mice; conditions: mouse, in vivo; for PD50: ip
Y. pestis [4] = conditions: cited from earlier work
B. anthracis [5] = conditions: cited from earlier work
B. mallei [6] = conditions: cited from earlier work
B. pseudomallei [7] = conditions: cited from earlier work
F. tularensis = experiment: microbe, parasite or virus in culture; assay type: cell-based
B. pseudomallei [8] = experiment: microbe, parasite or virus in culture; assay type: cell-based; conditions: Burkholderia pseudomallei
Chlamydia pneumonia = experiment: microbe, parasite or virus in culture; assay type: cell-based
E. faecalis = experiment: animal or person; assay type: in vivo, Mice; conditions: Enterococcus faecalis, in Mus musculus, read-out: PD50/ED50
H. influenza = experiment: animal or person; assay type: in vivo, Mice; conditions: Mus musculus, read-out: PD50/ED50
E. coli = experiment: animal or person; assay type: in vivo, Mice; conditions: Escherichia coli, in Mus musculus, read-out: PD50/ED50
B. mallei (China 7) = system: B. mallei (China 7); parameters: species or system BALB/c mice; conditions: mouse, in vivo
[9] = system: bacteria isolated from clinical specimens; assay type: cell-based
[10] = system: Staphylococcus aureus (MSSA); conditions: cited from earlier work
[11] = system: Staphylococcus aureus (MRSA); conditions: cited from earlier work
[12] = system: Coagulase-negative staphylococci; conditions: cited from earlier work
[13] = system: Enterococcus faecalis (VSE); conditions: cited from earlier work
[14] = system: Enterococcus facecalis (VRE); conditions: cited from earlier work
[15] = system: Enterococcus faecium (VSE); conditions: cited from earlier work
[16] = system: Enterococcus faecium (VRE); conditions: cited from earlier work
Streptococcus pneumonia = conditions: cited from earlier work
[17] = system: Streptococcus pneumoniae (PRSP); conditions: cited from earlier work
Streptococcus pyogenes = conditions: cited from earlier work
Streptococcus agalactiae = conditions: cited from earlier work
Haemophilus influenza = conditions: cited from earlier work
Moraxella catarrhalis = conditions: cited from earlier work
Escherichia coli = conditions: cited from earlier work
Enterobacter aerogenes = conditions: cited from earlier work
Enterobacter cloacae = conditions: cited from earlier work
Klebsiella pneumonia = conditions: cited from earlier work
Proteus mirabilis = conditions: cited from earlier work
Salmonella spp. = conditions: cited from earlier work
Shigella spp. = conditions: cited from earlier work
Pseudomonas aeruginosa = conditions: cited from earlier work
Acinetobacter baumannii = conditions: cited from earlier work
Burkholderia cepacia = conditions: cited from earlier work
Bacteroides fragilis = conditions: cited from earlier work
Clostridium difficile = conditions: cited from earlier work
Clostridium perfringens = conditions: cited from earlier work

C[C@H]1c2cccc(O)c2C(=O)C2=C(O)[C@]3(O)C(=O)C(C(N)=O)=C(O)[C@@H](N(C)C)[C@@H]3[C@@H](O)[C@@H]21 [Doxycycline, reference compound]
MIC (Y. pestis [1]; Yersinia pestis): 0.5 µg/mL (≈ 1.13 µM)
MIC (B. anthracis [2]; Bacillus anthracis): 0.03 µg/mL (≈ 0.0675 µM)
MIC (B. mallei [3]; Burkholderia mallei): 0.06 µg/mL (≈ 0.135 µM)
MIC50 (Legionella pneumophila): 1 µg/mL (≈ 2.25 µM)
MIC90 (Legionella pneumophila): 1 µg/mL (≈ 2.25 µM)
PD50 (Y. pestis (C092)): 29.7 (range of 20.7 to 38.8) mg/kg
PD50 (B. anthracis AMES strain): 2.0 (range of 1.4 to 2.6) mg/kg

CC[C@H]1OC(=O)[C@H](C)[C@@H](O[C@H]2C[C@@](C)(OC)[C@@H](O)[C@H](C)O2)[C@H](C)[C@@H](O[C@@H]2O[C@H](C)C[C@H](N(C)C)[C@H]2O)[C@](C)(O)C[C@@H](C)CN(C)[C@H](C)[C@@H](O)[C@]1(C)O [azithromycin, reference compound]
MIC (B. mallei [3]; Burkholderia mallei): 0.5 µg/mL (≈ 0.668 µM)

O=C(O)c1cn(C2CC2)c2cc(N3CCNCC3)c(F)cc2c1=O [Ciprofloxacin]
MIC90 (Y. pestis [4]): 0.03125 µg/mL (≈ 0.0943 µM)
MIC range (Y. pestis [4]): 0.0039 to 0.0625 µg/mL
MIC50 (B. anthracis [5]): 0.0625 µg/mL (≈ 0.189 µM)
MIC90 (B. anthracis [5]): 0.125 µg/mL (≈ 0.377 µM)
MIC range (B. anthracis [5]): 0.03125 to .25 µg/mL
MIC50 (B. mallei [6]): 0.5 µg/mL (≈ 1.51 µM)
MIC90 (B. mallei [6]): 1 µg/mL (≈ 3.02 µM)
MIC range (B. mallei [6]): 0.0625 to 1 µg/mL
MIC50 (B. pseudomallei [7]): 2 µg/mL (≈ 6.04 µM)
MIC90 (B. pseudomallei [7]): 4 µg/mL (≈ 12.1 µM)
MIC range (B. pseudomallei [7]): 0.5 to 32 µg/mL

CN(C)c1cc(CNCC(C)(C)C)c(O)c2c1C[C@H]1C[C@H]3[C@H](N(C)C)C(O)=C(C(N)=O)C(=O)[C@@]3(O)C(O)=C1C2=O [Compound A, 9-[(2,2-dimethyl-propylamino)-methyl]minocycline]
MIC range (Y. pestis [1]): 0.125 to 2 µg/mL
in vitro activity (in words) (Y. pestis [1]): significant activity
MIC (Y. pestis [1]; Yersinia pestis): 1 µg/mL (≈ 1.8 µM)
MIC50 (Y. pestis [1]; Yersinia pestis): 1 µg/mL (≈ 1.8 µM)
MIC90 (Y. pestis [1]; Yersinia pestis): 1 µg/mL (≈ 1.8 µM)
MIC range (B. anthracis [2]): <0.03125 to 0.0625 µg/mL
in vitro activity (in words) (B. anthracis [2]): highly active
MIC (B. anthracis [2]; Bacillus anthracis): < 0.03 µg/mL
MIC50 (B. anthracis [2]; Bacillus anthracis): 0.0312 µg/mL (≈ 0.0561 µM)
MIC90 (B. anthracis [2]; Bacillus anthracis): 0.0625 µg/mL (≈ 0.112 µM)
MIC range (F. tularensis): 0.5 to 2 µg/mL
in vitro activity (in words) (F. tularensis): significant activity
MIC50 (F. tularensis; Francisella tularensis): 1 µg/mL (≈ 1.8 µM)
MIC90 (F. tularensis; Francisella tularensis): 2 µg/mL (≈ 3.59 µM)
MIC range (B. mallei [3]): <0.03125 to 0.5 µg/mL
in vitro activity (in words) (B. mallei [3]): highly active
MIC (B. mallei [3]; Burkholderia mallei): 0.25 µg/mL (≈ 0.449 µM)
MIC50 (B. mallei [3]; Burkholderia mallei): 0.125 µg/mL (≈ 0.225 µM)
MIC90 (B. mallei [3]; Burkholderia mallei): 0.25 µg/mL (≈ 0.449 µM)
MIC50 (B. pseudomallei [8]): 64 µg/mL (≈ 115 µM)
MIC90 (B. pseudomallei [8]): > 64 µg/mL
MIC50 (Legionella pneumophila): 0.25 µg/mL (≈ 0.449 µM)
MIC90 (Legionella pneumophila): 0.25 µg/mL (≈ 0.449 µM)
MIC50 (Chlamydia pneumonia): 0.25 µg/mL (≈ 0.449 µM)
MIC90 (Chlamydia pneumonia): 0.25 µg/mL (≈ 0.449 µM)
ED50 (E. faecalis): 4.5 mg/kg
ED50 (H. influenza): 4.7 mg/kg
ED50 (E. coli): 4.3 mg/kg
percent survival (comparison in words, FIG. 1) (Y. pestis (C092); 40 mg/kg): more effective as doxycycline at 40 mg/kg and is at least as effective or ciprofloxacin at 15 mg/kg
PD50 (Y. pestis (C092)): 23.5 (range of 20.1 to 27.0 mg/kg)
percent survival (comparison in words, FIG. 2) (B. anthracis AMES strain): as effective as doxycycline or ciprofloxacin
PD50 (B. anthracis AMES strain): 0.8 (range of 0.6 to 1.1 mg/kg)
percent survival (in words, FIG. 3) (B. mallei (China 7)): as effective as doxycycline or azithromycin
effect of serum or lung surfactant on in vitro activity [9]: not affected by serum or lung surfactant
MIC50 [10]: 0.25/0.12 μg/mL
MIC90 [10]: 0.25/0.25 μg/mL
MIC50 [11]: 0.25/0.12 μg/mL
MIC90 [11]: 0.25/2 μg/mL
MIC50 [12]: 0.25/0.25 μg/mL
MIC90 [12]: 1/2 μg/mL
MIC50 [13]: 0.25/8 μg/mL
MIC90 [13]: 0.5/8^ μg/mL
MIC50 [14]: 0.12/0.25 μg/mL
MIC90 [14]: 0.25/8 μg/mL
MIC50 [15]: 0.12/0.12 μg/mL
MIC90 [15]: 0.12/16^ μg/mL
MIC50 [16]: 0.12/8 μg/mL
MIC90 [16]: 0.12/8 μg/mL
MIC50 (Streptococcus pneumonia): 0.12/0.25 μg/mL
MIC90 (Streptococcus pneumonia): 0.12/8 μg/mL
MIC50 [17]: 0.12/8 μg/mL
MIC90 [17]: 0.12/8 μg/mL
MIC50 (Streptococcus pyogenes): 0.12/25^ μg/mL
MIC90 (Streptococcus pyogenes): 0.12/0.25 μg/mL
MIC50 (Streptococcus agalactiae): 0.25/8 μg/mL
MIC90 (Streptococcus agalactiae): 0.25/16^ μg/mL
MIC50 (Haemophilus influenza): 0.5/0.5 μg/mL
MIC90 (Haemophilus influenza): 1/1 μg/mL
MIC50 (Moraxella catarrhalis): 0.25/0.25 μg/mL
MIC90 (Moraxella catarrhalis): 0.25/0.25 μg/mL
MIC50 (Escherichia coli): 2/8 μg/mL
MIC90 (Escherichia coli): 4/>32 μg/mL
MIC50 (Enterobacter aerogenes): 2/2 μg/mL
MIC90 (Enterobacter aerogenes): 4/4 μg/mL
MIC50 (Enterobacter cloacae): 2/4 μg/mL
MIC90 (Enterobacter cloacae): 16/16 μg/mL
MIC50 (Klebsiella pneumonia): 2/2 μg/mL
MIC90 (Klebsiella pneumonia): 8/>32 μg/mL
MIC50 (Proteus mirabilis): 16/16 μg/mL
MIC90 (Proteus mirabilis): 32/>32 μg/mL
MIC50 (Salmonella spp.): 2/4 μg/mL
MIC90 (Salmonella spp.): 8/32 μg/mL
MIC50 (Shigella spp.): 1/1 μg/mL
MIC90 (Shigella spp.): 2/32 μg/mL
MIC50 (Pseudomonas aeruginosa): 32/32 μg/mL
MIC90 (Pseudomonas aeruginosa): 64/32 μg/mL
MIC50 (Acinetobacter baumannii): 0.25/0.25 μg/mL
MIC90 (Acinetobacter baumannii): 4/2 μg/mL
MIC50 (Burkholderia cepacia): 2/4 μg/mL
MIC90 (Burkholderia cepacia): 64/>32 μg/mL
MIC50 (Bacteroides fragilis): 1/8 μg/mL
MIC90 (Bacteroides fragilis): 4/16 μg/mL
MIC50 (Clostridium difficile): 0.12/0.03 μg/mL
MIC90 (Clostridium difficile): 0.12/1 μg/mL
MIC50 (Clostridium perfringens): 1/2 μg/mL
MIC90 (Clostridium perfringens): 4/8 μg/mL

Source: patent US11129839B2, “Minocycline compounds for biodefense” (priority 2015, dated 2021)
